Assay results published in publication PMC12175907 (Science Advances, 2025).
“Also recorded” adds a separate entry of the source.

Assays:
[1] = tested on: shrews; assay: emesis, tirzepatide dose-response, shrews; format: in vivo, Suncus murinus; details: 10, 100 and 1000 nmol/kg ip; 120 min; n = 9 per group
From the text: Adult male shrews (S. murinus) weighing ~50 to 80 g (n = 84 total) were bred and maintained in the De Jonghe Lab (University of Pennsylvania). These animals were offspring from a colony previously maintained at the University of Pittsburgh Cancer Institute (C. Horn); a Taiwanese strain was derived from stock originally supplied by the Chinese University of Hong Kong. Shrews were singly housed in plastic cages (37.3 cm by 23.4 cm by 14 cm, Innovive) under a 12-hour/12-hour light/dark cycle in a temperature-controlled and humidity-controlled environment. Animal were fed ad libitum with a mixture of feline (75%, Laboratory Feline Diet 5003, Lab Diet) and mink food (25%, High Density Ferret Diet 5LI4, Lab Diet) and had ad libitum access to tap water except where noted.
We then evaluated the emetogenic actions of tirzepatide (10, 100, and 1000 nmol/kg) or vehicle in a different cohort of shrews (n = 9). The animals were habituated to the experimental conditions as described above. Treatments were separated by 7 days. Emetic episodes were recorded and quantified as described above.

[2] = tested on: rats; assay: food and kaolin consumption and body weight in rats (semaglutide, tirzepatide); format: in vivo, Sprague-Dawley rat
From the text: Adult male Sprague-Dawley rats (Charles River) weighing ~250 to 270 g (n = 45) at arrival were housed under a 12-hour/12-hour light/dark cycle in a temperature-controlled and humidity-controlled vivarium. Rats were individually housed in hanging wire-bottom cage with ad libitum access to chow diet (Purina Lab Diet 5001) or, when noted, to high-fat/high-sugar diet (60% fat diet, 12492, Research Diets) and tap water and had ad libitum access to kaolin pellets (Research Diets, K50001). Rats were exposed to kaolin for at least 5 days prior to measuring kaolin consumption in pica testing. Kaolin intake and food consumption were measured simultaneously as the presence of kaolin in the cage, and its subsequent ingestion, has usually negligible effects on the hypophagic and body weight–lowering effects of the treatments.
GIPFA-085 (GIP-085), tirzepatide, and GLP-140 were designed and produced by Eli Lilly and Company. GIP-085, GLP-140, and semaglutide (Cayman Chemical) were dissolved in 40 mM tris-HCl buffer (pH 8) and 0.02% Tween 80. For the study in mice, all drugs were injected subcutaneously at a volume of 5 ml/kg of body weight. In rats, all drugs were injected intraperitoneally, at a volume of 1 ml/kg of body weight, except when noted. In shrews, all drugs were injected intraperitoneally at a volume of 10 ml/kg of body weight.
In two separate cohorts of rats (n = 10 per group, body weight ~ 460 ± 9 g), food consumption, kaolin intake, and body weight were measured after an intraperitoneal administration of vehicle, semaglutide (10 and 100 nmol/kg), or tirzepatide (10 and 100 nmol/kg), respectively. Food and kaolin intake were measured at 3, 6, 24, and 48 hours postinjection, and body weight was measured at 0, 24, and 48 hours. For each drug, a within-subject paradigm was used, with each round of injections separated by 7 days.

[3] = tested on: patients; details: human, in vivo; cited from earlier work

Row | Compound | emesis [1] | kaolin intake ([2]; 100 nmol/kg ip, n = 10 per group, vs vehicle) | kaolin consumption, semaglutide vs tirzepatide ([2]; 100 nmol/kg ip, n = 10 to 20 per group) | kaolin consumption vs vehicle, tirzepatide ([2]; tirzepatide, rats (dose not stated at this place)) | patients reporting nausea [3]
1 | CC[C@H](C)[C@H](NC(=O)[C@H](CC(C)C)NC(=O)[C@H](Cc1c[nH]c2ccccc12)NC(=O)[C@H](CCC(N)=O)NC(=O)[C@@H](NC(=O)[C@H](Cc1ccccc1)NC(=O)[C@H](C)NC(=O)[C@H](CCCCNC(=O)COCCOCCNC(=O)COCCOCCNC(=O)CC[C@H](NC(=O)CCCCCCCCCCCCCCCCCCC(=O)O)C(=O)O)NC(=O)[C@H](CCC(N)=O)NC(=O)[C@H](C)NC(=O)[C@@H](NC(=O)[C@H](CCCCN)NC(=O)[C@H](CC(=O)O)NC(=O)[C@H](CC(C)C)NC(=O)C(C)(C)NC(=O)[C@@H](NC(=O)[C@H](CO)NC(=O)[C@H](Cc1ccc(O)cc1)NC(=O)[C@H](CC(=O)O)NC(=O)[C@H](CO)NC(=O)[C@@H](NC(=O)[C@H](Cc1ccccc1)NC(=O)[C@@H](NC(=O)CNC(=O)[C@H](CCC(=O)O)NC(=O)C(C)(C)NC(=O)[C@@H](N)Cc1ccc(O)cc1)[C@@H](C)O)[C@@H](C)O)[C@@H](C)CC)[C@@H](C)CC)C(C)C)C(=O)N[C@@H](C)C(=O)NCC(=O)NCC(=O)N1CCC[C@H]1C(=O)N[C@@H](CO)C(=O)N[C@@H](CO)C(=O)NCC(=O)N[C@@H](C)C(=O)N1CCC[C@H]1C(=O)N1CCC[C@H]1C(=O)N1CCC[C@H]1C(=O)N[C@@H](CO)C(N)=O [tirzepatide] | complete absence of emesis; also recorded: no emesis occurred; also recorded: complete absence of any emetic episode | causes significant kaolin intake | induces less kaolin consumption in rats compared to equipotent doses of semaglutide | still significantly elevated compared to vehicle-treated animals | 
2 | AMG 133: bispecific molecule engineered by conjugating a GIPR antagonizing antibody with a GLP-1R agonist |  |  |  |  | 100%
